Patent US8349791B2, “Polypeptides that bind membrane proteins” (The Trustees of the University of Pennsylvania, priority 2006, dated 2013)
Square brackets hold non-standard residues; d marks the D form. Ends that are not written are not given here.

Tests used:
[1] = tested on: gel-filtered human platelets; assay: Platelet aggregation, turbidometric; assay type: cell-based; conditions: gel-filtered human platelets
Procedure: Platelet-rich plasma, prepared from human blood anti-coagulated with 0.1 volume of 0.13 M sodium citrate, was gel-filtered on Sepharose 2B (Amersham Biosciences, Piscataway, N.J.) using an elution buffer containing 137 mM NaCl, 2.7 mM KCl, 1 mM MgCl2, 5.6 mM glucose, 0.35 mg/ml bovine serum albumin, 3.3 mM NaH2PO4, and 4 mM HEPES (pH=7.4), as previously described. Jordan P et al. Nature 411, 909-917 (2001). Turbidometric measurements of platelet aggregation were performed in a Chrono-Log Lumi-Dual Aggregometer. Aliquots (0.4 ml) of the gel-filtered platelet suspension were supplemented with 200 μg/ml human fibrinogen (Enzyme Research Labs., South Bend, Ind.) and 1 mM CaCl2 (final concentrations) prior to adding platelet agonists. The polypeptide was added from a DMSO solution such that the final concentration of DMSO was no greater than 0.5%. All controls also had 0.5% DMSO in the buffer.

[2] = molecular target: T1, full-length αIIbβ3 integrin (Homo sapiens, UniProt P08514); assay: Fluorescence anisotropy titration with full-length integrin; assay type: binding; conditions: N-octyl-β-D-glucopyranoside micelles, 64 nM labelled peptide, 25° C.
T1 construct: The full-length integrin aIIbβ3 protein in buffer
Procedure: The full-length integrin aIIbβ3 protein in buffer (7.9 mg/ml, 10 mM HEPES (pH=7.5), 60 mM N-octyl-β-D-glucopyranoside, 0.5 mM CaCl2, 0.02% NaN3) was prepared using the previously reported method. Weisel J W et al. J. Biol. Chem. 267, 16637-16643 (1992). Fluorescence polarization experiments were conducted on an ATF 105 spectrofluorometer (Aviv Biomedical, Inc., Lakewood, N.J.) using a 0.3 cm path length cuvette. Spectra were measured at 25° C. using 1.0 nm slit widths. Excitation at 408 nm was used for the coumarin-labeled polypeptide and the emission maximum at 433 nm was monitored. Anisotropy measurements were recorded upon titration of the integrin αIIbβ3 protein at varying concentrations into a polypeptide solution of 64 nM coum-anti-αIIb or coum-anti-αIIbmut. Data analysis was carried out according to previously described methods. See Yin H et al. J. Am. Chem. Soc. 127, 10191-96 (2005).

[3] = tested on: gel-filtered human platelets; conditions: cited from earlier work

Row | Substance | platelet aggregation response [1] | other results
1 | RAWFALFLLIFLGFLLGVATLLVQY ([dR][dA][dW][dF][dA][dL][dF][dL][dL][dI][dF][dL]G[dF][dL][dL]G[dV][dA][dT][dL][dL][dV][dQ][dY]) [d-anti-αIIb] | aggregation of gel-filtered human platelets was induced by increasing concentrations | 
2 | coum-anti-αIIb: 7-hydroxycoumarin-3-carboxamide-labeled anti-αIIb, label attached via a linker to the N-terminus (KKAYVMLLPFFIGLLLGLIFGGAFWGPARHLKK; not fully specified (N-terminus, C-terminus); also: label attached via an unspecified linker) |  | apparent Kdiss for αIIbβ3 [2]: 1.3±0.2×10^−5 mole fraction units
3 | KKIFGVLTFLFGYILGALITGAVYWFVQLLAKK [anti-αIIb′] | highly active | 
4 | αIIb-TM: polypeptide spanning residues Trp968 to Lys989 of αIIb (WVLVGVLGGLLLLTILVLAMWK) |  | potency as activator of αIIbβ3 / inducer of platelet aggregation relative to anti-αIIb [3]: substantially less potent
